Here are results for nine compounds from US11957759B1, “Rapidly accelerated fibrosarcoma (RAF) degrading compounds and associated methods of use” (Arvinas Operations, Inc., priority 2022, dated 2024).

One assay concerns the target T1, B-RAF G466V (Homo sapiens, UniProt P15056, G466V).
T1 construct: expressed in transfected cells; host or cells: T-Rex 293 cells (Invitrogen #R71007)
The assay can be described thus: Target protein degradation, assay D: T-Rex 293 cells, HA-BRAF_G466V, 384 well format. It is filed as cell-based. Particulars: T-Rex 293 HA-BRAF_G466V cells, 24 hours, Examples 83-269; for DC50: Assay D; for Dmax: T-REx-293, Assay D. The protocol:
D. T-Rex 293 Cells (384 Well Format)
(§1) T-Rex 293 cells were purchased from Invitrogen (#R71007), and stably transfected with a pcDNA4/TO_HA-BRAF_G466V construct, using 400 ug Zeocin for selection. G466V cells are plated in DMEM media (Gibco #11965118) containing 10% FBS (Gibco #16000044), 1% penicillin-streptomycin (ThermoFisher #15140122), 1:250 zeocin (Invitrogen #R-25005), and 1 ng/mL doxycycline (Selleckchem #4163) at a density of 7,500 cells/well in 45 μl on PDL coated, black clear bottom 384 well plates (Corning #354663) and incubated at 37° C.+5% CO2 for 24 hours. The following day, PROTAC compounds in a 1:3 11 point dilution are diluted into DMEM media using an Agilent Bravo. 5 ul of PROTACs suspended in DMEM media are added to the cells, with a final assay concentration ranging from 300 nM to 5 pM in 0.5% DMSO. Plates are incubated at 37° C.+5% CO2 for 24 hours. At the end of treatment, media is aspirated, and cells are fixed in 50 uL 4% PFA (EMS #15710) in PBS++(PBS, 1 mM CaCl, 1 mM MgCl) at RT for 15 minutes. Cells are washed 2× with 60 uL PBS++ and permeabilized in 50 uL 1% Triton X-100 (Sigma #93443) in PBS++ for 5 minutes at RT. Cells are washed in PBS++ prior to blocking with 50 uL Licor blocking buffer (Licor #927-60001) for 1 hour at RT. HA-tagged BRAF was stained using 50 uL HA antibody (CST #3724) at 1:1000 in Licor blocking buffer for two hours at RT. Primary is aspirated before adding 50 ul of secondary antibody solution containing 1:1000 Hoechst (ThermoFisher #62249), 1:1000 HCS CellMask Deep Red Stain (ThermoFisher #H32721), and 1:5000 goat anti-rabbit IgG Alexa-Fluor 488 (ThermoFisher #A32731) in PBS++ for 1 hr at RT. Plates are washed 4× with 60 uL PBS++, then sealed with Adhesive Black Light Absorbing Film (VWR #89087-692) and imaged on the ThermoFisher CX7 PRO high content instrument. BRAF intensity is quantified in HCS Studio software (ThermoFisher), using a custom script, exported, analyzed using KNIME, and curve curation is performed in an ELN (Scilligence). Cell toxicity is measured via comparing number of nuclei in PROTAC treated wells to DMSO controls.
(§2) The concentration of an exemplary compound that leads to half maximal degradation (DC50) as well as the maximum degradation observed (Dmax, conventionally expressed as a percentage of control) is shown below in Table 2.

In another assay the target is T2, B-RAF V600E (Homo sapiens, UniProt P15056, V600E).
T2 construct: expressed in transfected cells; host or cells: T-Rex 293 cells (Invitrogen #R71007)
Put plainly: Target protein degradation, assay C: T-Rex 293 cells, HA-BRAF_V600E, 384 well format. In kind it is cell-based. Particulars: T-Rex 293 HA-BRAF_V600E cells, 24 hours, Examples 83-269; for Dmax: T-REx-293, Assay C. Here is the method: C. T-Rex 293 Cells (384 Well Format)
as §1, with “pcDNA4/TO_HA-BRAF_V600E” for “pcDNA4/TO_HA-BRAF_G466V”, “V600E” for “G466V”
as §2

T1 sequence (P15056 whole entry G466V): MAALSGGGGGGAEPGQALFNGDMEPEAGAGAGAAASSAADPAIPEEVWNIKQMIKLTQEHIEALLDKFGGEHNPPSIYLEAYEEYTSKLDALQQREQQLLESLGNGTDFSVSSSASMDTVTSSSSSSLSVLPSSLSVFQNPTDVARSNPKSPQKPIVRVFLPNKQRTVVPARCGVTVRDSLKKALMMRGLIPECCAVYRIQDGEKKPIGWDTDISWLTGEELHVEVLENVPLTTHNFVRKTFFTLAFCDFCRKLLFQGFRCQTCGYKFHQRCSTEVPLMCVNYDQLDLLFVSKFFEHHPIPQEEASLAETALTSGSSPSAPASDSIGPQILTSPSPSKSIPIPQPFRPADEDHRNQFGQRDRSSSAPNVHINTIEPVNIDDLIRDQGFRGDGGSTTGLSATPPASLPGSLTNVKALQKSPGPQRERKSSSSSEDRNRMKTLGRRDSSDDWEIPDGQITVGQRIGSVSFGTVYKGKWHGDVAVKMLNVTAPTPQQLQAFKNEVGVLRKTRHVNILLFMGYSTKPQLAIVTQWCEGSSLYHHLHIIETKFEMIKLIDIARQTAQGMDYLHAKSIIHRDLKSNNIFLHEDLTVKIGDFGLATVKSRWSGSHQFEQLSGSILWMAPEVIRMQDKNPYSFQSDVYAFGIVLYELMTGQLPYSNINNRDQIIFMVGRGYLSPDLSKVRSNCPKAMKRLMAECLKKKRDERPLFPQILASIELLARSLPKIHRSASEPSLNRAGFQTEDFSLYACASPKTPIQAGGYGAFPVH
T2 sequence (P15056 whole entry V600E): as the sequence (P15056 whole entry G466V) above, with V466G, V600E counted along it

The DC50 is the concentration at which degradation of the target reaches its halfway point. The Dmax is the largest share of the target that was removed. A lower Dmax goes with a partial loss of target. In the case of `N#Cc1c(NS(=O)(=O)N2CC[C@@H](F)C2)ccc(F)c1Oc1ccc2ncn(-c3cnc(C4(N5CCN(CC6CN(c7ccc(NC8CCC(=O)NC8=O)cc7F)C6)CC5)CC4)nc3)c(=O)c2c1` (stereo partly drawn) [Example 108, (3R)-N-[2-cyano-3-({3-[2-(1-{4-[(1-{4-[(2,6-dioxopiperidin-3-yl)amino]-2-fluorophenyl}azetidin-3-yl)methyl]piperazin-1-yl}cyclopropyl)pyrimidin-5-yl]-4-oxo-3,4-dihydroquinazolin-6-yl}oxy)-4-fluorophenyl]-3-fluoropyrrolidine-1-sulfonamide], the DC50 at B-RAF G466V lay in the range of 1 to 10 nM; on B-RAF V600E (Assay C), 5 to 50 nM. For the same compound, the values for the Dmax at B-RAF G466V and on B-RAF V600E were at most 35% and 35 to 70%, respectively.
On the same counts, the results for `N#Cc1c(NS(=O)(=O)N2CC[C@@H](F)C2)ccc(F)c1Oc1ccc2ncn(-c3ccc(N4CCC(CN5CC6(CC(c7ccc8c(c7)CN(C7CCC(=O)NC7=O)C8=O)C6)C5)CC4)cc3)c(=O)c2c1` (stereo partly drawn) [Example 182, (3R)-N-{2-cyano-3-[(3-(4-[4-({6-[2-(2,6-dioxopiperidin-3-yl)-1-oxo-2,3-dihydro-1H-isoindol-5-yl]-2-azaspiro[3.3]heptan-2-yl}methyl)piperidin-1-yl]phenyl}-4-oxo-3,4-dihydroquinazolin-6-yl)oxy]-4-fluorophenyl}-3-fluoropyrrolidine-1-sulfonamide] are 1 to 10 nM, 50 to 500 nM, 35 to 70% and at most 35%.
`N#Cc1c(NS(=O)(=O)N2CC[C@@H](F)C2)ccc(F)c1Oc1ccc2ncn(-c3ccc(N4CCC(CN5CC6(CC(c7ccc8c(c7)C(=O)N(C7CCC(=O)NC7=O)C8=O)C6)C5)CC4)cc3)c(=O)c2c1` (stereo partly drawn) [Example 119, (3R)-N-{2-cyano-3-[(3-{4-[4-({6-[2-(2,6-dioxopiperidin-3-yl)-1,3-dioxo-2,3-dihydro-1H-isoindol-5-yl]-2-azaspiro[3.3]heptan-2-yl}methyl)piperidin-1-yl]phenyl}-4-oxo-3,4-dihydroquinazolin-6-yl)oxy]-4-fluorophenyl}-3-fluoropyrrolidine-1-sulfonamide] gave a DC50 at B-RAF V600E (Assay C) of over 500 nM.
For `C[C@H]1CN(CC2CCN(c3ccc4c(c3F)CN([C@H]3CCC(=O)NC3=O)C4=O)CC2)CCN1c1ccc(-n2cnc3ccc(Oc4c(F)ccc(NS(=O)(=O)N5CC[C@@H](F)C5)c4C#N)cc3c2=O)cc1` [Example 117, (3R)-N-{2-cyano-3-[(3-(4-[(2S)-4-[(1-{2-[(3S)-2,6-dioxopiperidin-3-yl]-4-fluoro-1-oxo-2,3-dihydro-1H-isoindol-5-yl}piperidin-4-yl)methyl]-2-methylpiperazin-1-yl]phenyl}-4-oxo-3,4-dihydroquinazolin-6-yl)oxy]-4-fluorophenyl}-3-fluoropyrrolidine-1-sulfonamide], on B-RAF V600E (Assay C), the DC50 was 50 to 500 nM. The compound further yielded a Dmax on B-RAF V600E of 35 to 70%.
For the compound `CCN(C)S(=O)(=O)Nc1ccc(F)c(Oc2ccc3ncn(-c4ccc(N5CCC(CN6CCC(c7ccc8c(c7)CN(C7CCC(=O)NC7=O)C8=O)CC6)CC5)cc4)c(=O)c3c2)c1C#N` (centres unmarked) [Example 115, 2-[(3-{4-[4-({4-[2-(2,6-dioxopiperidin-3-yl)-1-oxo-2,3-dihydro-1H-isoindol-5-yl]piperidin-1-yl}methyl)piperidin-1-yl]phenyl}-4-oxo-3,4-dihydroquinazolin-6-yl)oxy]-6-{[ethyl(methyl)sulfamoyl]amino}-3-fluorobenzonitrile], the DC50 on B-RAF V600E (Assay C) lay in the range of 50 to 500 nM. Moreover, the Dmax on B-RAF V600E fell in the range of 35 to 70%.
Regarding `Cc1cc(N2CCC(CN3CCN(c4ccc(-n5cnc6ccc(Oc7c(F)ccc(NS(=O)(=O)N8CC[C@@H](F)C8)c7C#N)cc6c5=O)cc4)CC3)CC2)c(F)c2c1C(=O)N(C1CCC(=O)NC1=O)C2` (single isomer, unassigned) [Example 121, (3R)-N-(2-cyano-3-{[3-(4-{4-[(1-{2-[(3R*)-2,6-dioxopiperidin-3-yl]-4-fluoro-7-methyl-1-oxo-2,3-dihydro-1H-isoindol-5-yl}piperidin-4-yl)methyl]piperazin-1-yl}phenyl)-4-oxo-3,4-dihydroquinazolin-6-yl]oxy}-4-fluorophenyl)-3-fluoropyrrolidine-1-sulfonamide], on B-RAF V600E (Assay C), the “B-RAF V600E DMax (%)” value is listed as “B (35 < B < 70)” and the DC50 lay in the range of 50 to 500 nM.
The compound `Cc1cc(N2CCC(CN3CCN(c4ccc(-n5cnc6ccc(Oc7c(F)ccc(NS(=O)(=O)N8CC[C@@H](F)C8)c7C#N)cc6c5=O)cc4)CC3)CC2)c(F)c2c1C(=O)N(C1CCC(=O)NC1=O)C2` (single isomer, unassigned) [Example 120, (3R)-N-(2-cyano-3-{[3-(4-{4-[(1-{2-[(3R*)-2,6-dioxopiperidin-3-yl]-4-fluoro-7-methyl-1-oxo-2,3-dihydro-1H-isoindol-5-yl}piperidin-4-yl)methyl]piperazin-1-yl}phenyl)-4-oxo-3,4-dihydroquinazolin-6-yl]oxy}-4-fluorophenyl)-3-fluoropyrrolidine-1-sulfonamide] displayed a DC50 at B-RAF V600E (Assay C) of 5 to 50 nM. Moreover, the Dmax at B-RAF V600E was at most 35%.
On to `N#Cc1c(NS(=O)(=O)N2CC[C@@H](F)C2)ccc(F)c1Oc1ccc2ncn(-c3ccc(N4CCN(CC5CCN(c6ccc7c(c6)CN(C6CCC(=O)NC6=O)C7=O)CC5)CC4)s3)c(=O)c2c1` (stereo partly drawn) [Example 116, (3R)-N-{2-cyano-3-[(3-{5-[4-({1-[2-(2,6-dioxopiperidin-3-yl)-1-oxo-2,3-dihydro-1H-isoindol-5-yl]piperidin-4-yl}methyl)piperazin-1-yl]thiophen-2-yl}-4-oxo-3,4-dihydroquinazolin-6-yl)oxy]-4-fluorophenyl}-3-fluoropyrrolidine-1-sulfonamide], for which the DC50 at B-RAF V600E (Assay C) fell in the range of 50 to 500 nM. The same compound had a Dmax at B-RAF V600E of at most 35%.
`C[C@H]1CN(CC2CCN(c3ccc4c(c3F)CN([C@@H]3CCC(=O)NC3=O)C4=O)CC2)CCN1c1ccc(-n2cnc3ccc(Oc4c(F)ccc(NS(=O)(=O)N5CC[C@@H](F)C5)c4C#N)cc3c2=O)cc1` [Example 118, (3R)-N-{2-cyano-3-[(3-(4-[(2S)-4-[(1-{2-[(3R)-2,6-dioxopiperidin-3-yl]-4-fluoro-1-oxo-2,3-dihydro-1H-isoindol-5-yl}piperidin-4-yl)methyl]-2-methylpiperazin-1-yl]phenyl}-4-oxo-3,4-dihydroquinazolin-6-yl)oxy]-4-fluorophenyl}-3-fluoropyrrolidine-1-sulfonamide]: the DC50 at B-RAF V600E (Assay C) is over 500 nM.
